Active and inactive are the calls of the source. The calls are words filed in the database; no cut-off is given here.
Experiments:
[1] = molecular target: T1, A disintegrin and metalloproteinase with thrombospondin motifs 4 (Homo sapiens, UniProt O75173); assay: Inhibition of human ADAMTS4 using 43-mer VQTVTWPDMELPLPRNITEGEARGSVILTVKPIFEVSPSPLKG as substrate measured after 3 hrs by AlphaScreen assay
T1 sequence (O75173 whole entry): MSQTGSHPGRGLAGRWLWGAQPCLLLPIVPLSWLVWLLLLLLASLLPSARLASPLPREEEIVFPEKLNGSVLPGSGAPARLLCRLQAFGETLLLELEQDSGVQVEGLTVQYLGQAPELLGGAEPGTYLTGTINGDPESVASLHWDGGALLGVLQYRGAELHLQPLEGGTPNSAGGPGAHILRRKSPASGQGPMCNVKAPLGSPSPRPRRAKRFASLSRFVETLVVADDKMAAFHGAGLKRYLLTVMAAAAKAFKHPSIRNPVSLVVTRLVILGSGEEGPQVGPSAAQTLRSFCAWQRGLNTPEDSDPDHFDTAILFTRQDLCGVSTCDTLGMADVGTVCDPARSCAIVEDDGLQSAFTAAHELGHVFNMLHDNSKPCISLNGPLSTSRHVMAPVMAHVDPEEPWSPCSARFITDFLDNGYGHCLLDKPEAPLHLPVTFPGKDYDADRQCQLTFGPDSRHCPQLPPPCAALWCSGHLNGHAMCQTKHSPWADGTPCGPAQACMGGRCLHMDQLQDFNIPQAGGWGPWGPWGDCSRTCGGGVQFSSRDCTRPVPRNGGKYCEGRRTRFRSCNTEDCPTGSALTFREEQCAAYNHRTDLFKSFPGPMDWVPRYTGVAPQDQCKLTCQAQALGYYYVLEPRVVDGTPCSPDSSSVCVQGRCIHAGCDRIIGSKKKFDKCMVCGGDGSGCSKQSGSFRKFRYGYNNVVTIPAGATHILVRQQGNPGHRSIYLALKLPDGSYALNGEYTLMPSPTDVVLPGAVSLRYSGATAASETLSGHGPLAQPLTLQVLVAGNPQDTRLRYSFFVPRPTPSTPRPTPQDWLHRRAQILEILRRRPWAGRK

[2] = molecular target: 72 kDa type IV collagenase (Homo sapiens, UniProt P08253); assay: Inhibition of human MMP2 using Mca-PQGL-(3-[2,4-dinitrophenyl]-L-2,3-diaminopropionyl)-AR-OH as substrate measured after 2 to 4 hrs by fluorescence analysis
Stromelysin-1 = Stromelysin-1 (Homo sapiens, UniProt P08254); assay: Inhibition of human MMP3 using Mca-PQGL-(3-[2,4-dinitrophenyl]-L-2,3-diaminopropionyl)-AR-OH as substrate measured after 2 to 4 hrs by fluorescence analysis
[3] = molecular target: T2, ADAMTS5 (Rattus norvegicus) (UniProt Q6TY19); assay: Inhibition of rat ADAMTS5 using 43-mer VQTVTWPDMELPLPRNITEGEARGSVILTVKPIFEVSPSPLKG as substrate measured after 3 hrs by AlphaScreen assay
T2 sequence (whole entry): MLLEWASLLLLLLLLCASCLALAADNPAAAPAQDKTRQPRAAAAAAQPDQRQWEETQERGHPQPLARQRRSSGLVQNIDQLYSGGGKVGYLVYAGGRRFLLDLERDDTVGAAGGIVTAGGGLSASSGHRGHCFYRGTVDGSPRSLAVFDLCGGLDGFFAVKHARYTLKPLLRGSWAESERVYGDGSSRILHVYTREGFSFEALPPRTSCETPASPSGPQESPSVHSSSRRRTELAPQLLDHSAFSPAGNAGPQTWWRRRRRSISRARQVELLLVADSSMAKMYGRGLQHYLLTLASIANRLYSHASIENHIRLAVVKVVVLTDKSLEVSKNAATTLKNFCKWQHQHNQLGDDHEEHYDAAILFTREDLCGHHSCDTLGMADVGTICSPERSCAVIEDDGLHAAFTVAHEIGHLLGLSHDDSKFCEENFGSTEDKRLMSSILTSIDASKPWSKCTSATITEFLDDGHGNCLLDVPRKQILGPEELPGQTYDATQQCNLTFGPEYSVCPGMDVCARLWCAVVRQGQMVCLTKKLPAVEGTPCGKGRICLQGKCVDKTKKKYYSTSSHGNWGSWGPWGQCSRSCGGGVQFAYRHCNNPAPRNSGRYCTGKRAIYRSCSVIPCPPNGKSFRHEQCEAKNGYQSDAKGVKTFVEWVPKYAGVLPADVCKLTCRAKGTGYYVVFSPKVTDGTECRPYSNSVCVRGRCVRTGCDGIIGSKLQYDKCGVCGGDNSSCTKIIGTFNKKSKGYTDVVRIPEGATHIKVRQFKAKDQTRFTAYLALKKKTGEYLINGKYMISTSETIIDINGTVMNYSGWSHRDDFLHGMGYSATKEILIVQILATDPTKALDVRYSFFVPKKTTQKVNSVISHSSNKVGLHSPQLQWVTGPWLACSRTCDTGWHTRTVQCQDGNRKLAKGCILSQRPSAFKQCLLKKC

Homo sapiens [4] = organism: Homo sapiens; assay: Selectivity ratio of IC50 for human MMP13 to IC50 for human ADAMTS4
Homo sapiens [5] = organism: Homo sapiens; assay: Selectivity ratio of IC50 for human MMP2 to IC50 for human ADAMTS4
Homo sapiens [6] = organism: Homo sapiens; assay: Selectivity ratio of IC50 for human MMP3 to IC50 for human ADAMTS4
Homo sapiens [7] = organism: Homo sapiens; assay: Selectivity ratio of IC50 for human MMP9 to IC50 for human ADAMTS4
Homo sapiens [8] = organism: Homo sapiens; assay: Selectivity ratio of IC50 for human MMP14 to IC50 for human ADAMTS4
Homo sapiens [9] = organism: Homo sapiens; assay: Selectivity ratio of IC50 for human TACE to IC50 for human ADAMTS4
Homo sapiens [10] = organism: Homo sapiens; assay: Selectivity ratio of IC50 for human MMP1 to IC50 for human ADAMTS5
Homo sapiens [11] = organism: Homo sapiens; assay: Selectivity ratio of IC50 for human MMP3 to IC50 for human ADAMTS5
Homo sapiens [12] = organism: Homo sapiens; assay: Selectivity ratio of IC50 for human MMP7 to IC50 for human ADAMTS5
Homo sapiens [13] = organism: Homo sapiens; assay: Selectivity ratio of IC50 for human MMP9 to IC50 for human ADAMTS5
Homo sapiens [14] = organism: Homo sapiens; assay: Selectivity ratio of IC50 for human MMP14 to IC50 for human ADAMTS5

Sequence of Stromelysin-1 (P08254 whole entry): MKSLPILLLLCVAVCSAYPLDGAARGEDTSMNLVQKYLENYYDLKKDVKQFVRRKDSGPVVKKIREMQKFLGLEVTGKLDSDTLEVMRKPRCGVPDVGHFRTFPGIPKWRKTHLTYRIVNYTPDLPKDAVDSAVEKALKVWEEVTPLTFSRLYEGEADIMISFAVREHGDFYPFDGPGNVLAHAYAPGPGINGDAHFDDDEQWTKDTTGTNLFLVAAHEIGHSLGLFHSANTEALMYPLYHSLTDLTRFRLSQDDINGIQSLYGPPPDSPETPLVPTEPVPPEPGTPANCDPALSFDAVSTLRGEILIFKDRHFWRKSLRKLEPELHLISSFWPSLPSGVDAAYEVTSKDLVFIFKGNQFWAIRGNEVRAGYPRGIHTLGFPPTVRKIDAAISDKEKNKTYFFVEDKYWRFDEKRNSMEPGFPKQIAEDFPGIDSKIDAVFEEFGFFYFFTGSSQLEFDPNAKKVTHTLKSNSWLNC
Sequence of 72 kDa type IV collagenase (P08253 whole entry): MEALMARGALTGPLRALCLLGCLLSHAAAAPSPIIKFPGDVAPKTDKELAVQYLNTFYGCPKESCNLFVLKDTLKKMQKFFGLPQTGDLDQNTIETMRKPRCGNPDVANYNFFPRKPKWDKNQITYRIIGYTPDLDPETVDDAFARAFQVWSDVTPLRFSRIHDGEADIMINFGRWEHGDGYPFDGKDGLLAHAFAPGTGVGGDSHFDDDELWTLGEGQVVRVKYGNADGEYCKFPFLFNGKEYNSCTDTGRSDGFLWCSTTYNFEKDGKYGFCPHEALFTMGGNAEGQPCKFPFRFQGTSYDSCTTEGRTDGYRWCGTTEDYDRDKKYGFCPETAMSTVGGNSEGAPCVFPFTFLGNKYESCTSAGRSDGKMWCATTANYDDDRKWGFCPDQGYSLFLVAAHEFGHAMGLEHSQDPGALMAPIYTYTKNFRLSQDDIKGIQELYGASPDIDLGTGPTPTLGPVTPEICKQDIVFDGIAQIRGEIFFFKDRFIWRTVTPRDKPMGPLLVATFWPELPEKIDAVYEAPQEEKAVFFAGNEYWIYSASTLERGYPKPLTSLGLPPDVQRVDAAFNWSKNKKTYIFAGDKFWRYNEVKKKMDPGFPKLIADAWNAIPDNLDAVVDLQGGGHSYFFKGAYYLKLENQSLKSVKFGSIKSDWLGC

Row | IC50 [1] | IC50 [2] | IC50 (Stromelysin-1) | inhibition [3] | Ratio IC50 (Homo sapiens [4]) | Ratio IC50 (Homo sapiens [5]) | Ratio IC50 (Homo sapiens [6]) | Ratio IC50 (Homo sapiens [7]) | Ratio IC50 (Homo sapiens [8]) | Ratio IC50 (Homo sapiens [9]) | Ratio IC50 (Homo sapiens [10]) | Ratio IC50 (Homo sapiens [11]) | Ratio IC50 (Homo sapiens [12]) | Ratio IC50 (Homo sapiens [13]) | Ratio IC50 (Homo sapiens [14]) | Compound
1 | 4 nM | 11 µM | 60 µM | Active | > 1000 | > 1000 | > 1000 | > 1000 | > 1000 | > 1000 | > 1000 | > 1000 | > 1000 | > 1000 | > 1000 | CCn1ccnc1[C@]1(CNC(=O)c2cc3cc(C(F)(F)F)ccc3o2)NC(=O)NC1=O
2 |  |  |  | Active | > 1000 | > 1000 | > 1000 | > 1000 | > 1000 | > 1000 | > 1000 | > 1000 | > 1000 | > 1000 | > 1000 | Cn1ccnc1[C@]1(CNC(=O)c2cc3cc(C(F)(F)F)ccc3o2)NC(=O)NC1=O
3 | 6 nM | 2.4 µM | 7.1 µM | Active | > 1000 | > 1000 | > 1000 | > 1000 | > 1000 | > 1000 | > 1000 | > 1000 | > 1000 | > 1000 | > 1000 | Cc1cnc([C@]2(CNC(=O)c3cc4cc(Cl)ccc4o3)NC(=O)NC2=O)n1C
4 | 4 nM | 11 µM | 51 µM | Active | > 1000 | > 1000 | > 1000 | > 1000 | > 1000 | > 1000 | > 1000 | > 1000 | > 1000 | > 1000 | > 1000 | Cc1cnc([C@]2(CNC(=O)c3cc4cc(C(F)(F)F)ccc4o3)NC(=O)NC2=O)n1C
5 | 8 nM | 3.5 µM | 23 µM | Active | > 1000 | > 1000 | > 1000 | > 1000 | > 1000 | > 1000 | > 1000 | > 1000 | > 1000 | > 1000 | > 1000 | CCn1ccnc1[C@]1(CNC(=O)c2cc3cc(Cl)ccc3o2)NC(=O)NC1=O
6 | 6 nM | 5.8 µM | 17 µM | Active | > 1000 | > 1000 | > 1000 | > 1000 | > 1000 | > 1000 | > 1000 | > 1000 | > 1000 | > 1000 | > 1000 | O=C1NC(=O)[C@](CNC(=O)c2cc3cc(C(F)(F)F)ccc3o2)(C2CC2)N1
7 | 3 nM | 3.2 µM | 23 µM | Active | > 1000 | > 1000 | > 1000 | > 1000 | > 1000 | > 1000 | > 1000 | > 1000 | > 1000 | > 1000 | > 1000 | Cn1ccnc1[C@]1(CNC(=O)c2cc3cc(Cl)ccc3o2)NC(=O)NC1=O
